# Where two headings read alike, the source gives them in different places.
# Test system: HCT15 cells
# Experiment: MDR cell based killing assay, HCT15 cells with or without Verapamil (CellTiter-Glo)
# Design: species or system human
# Details: Homo sapiens
# Protocol: To test the ability of the disclosed tubulysin payloads or prodrug payloads to kill human cell lines, an in vitro cytotoxicity assay can be performed. In vitro cytotoxicity of the disclosed payloads, as well as reference compounds, are evaluated using the CellTiter-Glo Assay Kit (Promega, Cat # G7573), in which the quantity of ATP present is used to determine the number of viable cells in culture. For the assay, C4-2, HEK293, or T47D cells are seeded at 4000 cells/well on Nunclon white 96-well plates in complete growth medium (DME high glucose:Ham's F12 at 4:1, 10% FBS, 100 units/ml Penicillin, 100 ug/ml streptomycin, 53 ug/ml glutatmine, 10 ug/ml insulin, 220 ng/ml biotin, 12.5 pg/ml T3, 12.5 ug/ml Adenine, 4 ug/ml transferrin for C42 cells; DME high glucose, 10% FBS, 100 units/ml Penicillin, 100 ug/ml streptomycin, 53 ug/ml glutatmine for HEK293; RPMI, 10% FBS, 100 units/ml Penicillin, 100 ug/ml streptomycin, 53 ug/ml glutatmine, 10 ug/ml insulin, 10 mM HEPEs, 200 nM Sodium Pyruvate for T47D cells) and grown overnight at 37° C. in 5% CO2. For cell viability curves, 1:3 serially diluted payloads are added to the cells at final concentrations ranging from 100 nM to 15 pM, including a no treatment control group, and are then incubated for 5 days. After the 5-day incubation, cells are incubated at room temperature with 100 μL of CellTiter-Glo reagents for 10 minutes. Relative luminescence units (RLU) can be determined on a Victor plate reader (PerkinElmer). The IC50 values are determined from a four-parameter logistic equation over a 10-point response curve (GraphPad Prism). All IC50 values are expressed in molar (M) concentration. The percent cell killing (% kill) at the maximum concentration tested is estimated from the following formula (100−% viable cells). Averages±standard deviation (SD) can be included where replicate experiments are performed.
# In vitro cytotoxicity of the disclosed payloads as well as reference compounds are evaluated similarly as described above except using 1000 HCT15 cells, a colorectal carcinoma cell line, in growth medium (RPMI, 10% FBS, 100 units/ml Penicillin, 100 ug/ml streptomycin, 53 ug/ml glutatmine) with or without 5 ug/mL of Verapamil.
# For each payload or prodrug payload, the HCT-15 IC50 in the absence of Verapamil is divided by the HCT-15 IC50 in the presence of Verapamil (HCT-15 IC50/HCT-15+Verapamil IC50). […] The reference compound, (MMAE), can have a ratio of 23.7. […]
# [1] = HCT-15, read-out: HCT-15 with verapamil IC50
Compound,"IC50 (HCT-15, read-out: HCT-15 IC50)",IC50 [1]
"CCCCCCN(C(=O)[C@@H](NC(=O)[C@H]1CCCCN1)[C@@H](C)CC)[C@H](C[C@@H](OCC)c1nc(C(=O)N[C@@H](Cc2ccc(N)c(F)c2)CC(C)(C)C(=O)O)cs1)C(C)C [Compound P16, (4S)-5-(4-amino-3-fluorophenyl)-4-({2-[(1R,3R)-1-ethoxy-3-[(2S,3S)—N-hexyl-3-methyl-2-[(2R)-piperidin-2-ylformamido]pentanamido]-4-methylpentyl]-1,3-thiazol-4-yl}formamido)-2,2-dimethylpentanoic Acid]",1.96 nM,0.18 nM
"C#CCCCON(C(=O)[C@@H](NC(=O)[C@H]1CCCCN1C)[C@@H](C)CC)[C@H](C[C@@H](OC(C)=O)c1nc(C(=O)N[C@@H](Cc2ccc(NC(=O)CO)cc2)CC(C)(C)C(=O)O)cs1)C(C)C [Compound P37, (4S)-4-({2-[(1R,3R)-1-(acetyloxy)-4-methyl-3-[(2S,3S)-3-methyl-2-{[(2R)-1-methylpiperidin-2-yl]formamido}-N-(pent-4-yn-1-yloxy)pentanamido]pentyl]-1,3-thiazol-4-yl}formamido)-5-[4-(2-hydroxyacetamido)phenyl]-2,2-dimethylpentanoic Acid]",102 nM,
"CCCCCCN(C(=O)[C@@H](NC(=O)[C@H]1CCCCN1C)[C@@H](C)CC)[C@H](C[C@@H](OCC)c1nc(C(=O)NS(=O)(=O)Cc2ccc(N)cc2)cs1)C(C)C [Compound P45, N-[(4-aminophenyl)methanesulfonyl]-2-[(1R,3R)-1-ethoxy-3-[(2S,3S)—N-hexyl-3-methyl-2-{[(2R)-1-methylpiperidin-2-yl]formamido}pentanamido]-4-methylpentyl]-1,3-thiazole-4-carboxamide]",75.7 nM,
"CCCCCON(C(=O)[C@@H](NC(=O)[C@H]1CCCCN1)[C@@H](C)CC)[C@H](C[C@@H](OC(C)=O)c1nc(C(=O)N[C@@H](Cc2ccc(N)cc2)CC(C)(C)C(=O)O)cs1)C(C)C [Compound P36, (4S)-4-({2-[(1R,3R)-1-(acetyloxy)-4-methyl-3-[(2S,3S)-3-methyl-N-(pentyloxy)-2-[(2R)-piperidin-2-ylformamido]pentanamido]pentyl]-1,3-thiazol-4-yl}formamido)-5-(4-aminophenyl)-2,2-dimethylpentanoic Acid]",12.2 nM,
"CCCCCCN(C(=O)[C@@H](NC(=O)[C@H]1CCCCN1)[C@@H](C)CC)[C@H](C[C@@H](OCC)c1nc(C(=O)N[C@@H](Cc2ccc(N)cc2)CC(C)(C)C(=O)O)cs1)C(C)C [Compound P20, (4S)-5-(4-aminophenyl)-4-({2-[(1R,3R)-1-ethoxy-3-[(2S,3S)—N-hexyl-3-methyl-2-[(2R)-piperidin-2-ylformamido]pentanamido]-4-methylpentyl]-1,3-thiazol-4-yl}formamido)-2,2-dimethylpentanoic Acid]",6.97 nM,0.52 nM
"CCCCCCN(C(=O)[C@@H](NC(=O)[C@H]1C[C@H](C)CCN1)[C@@H](C)CC)[C@H](C[C@@H](OCC)c1nc(C(=O)N[C@@H](Cc2ccc(N)c(F)c2)CC(C)(C)C(=O)O)cs1)C(C)C [Compound P17, (4S)-5-(4-amino-3-fluorophenyl)-4-({2-[(1R,3R)-1-ethoxy-3-[(2S,3S)—N-hexyl-3-methyl-2-{[(2R,4R)-4-methylpiperidin-2-yl]formamido}pentanamido]-4-methylpentyl]-1,3-thiazol-4-yl}formamido)-2,2-dimethylpentanoic Acid]",5.17 nM,0.67 nM
"C#CCCCON(C(=O)[C@@H](NC(=O)[C@@]1(C)CCCN1)[C@@H](C)CC)[C@H](C[C@@H](OC(C)=O)c1nc(C(=O)N[C@@H](Cc2ccc(N)c(F)c2)CC(C)(C)C(=O)O)cs1)C(C)C [Compound P35, (4S)-4-({2-[(1R,3R)-1-(acetyloxy)-4-methyl-3-[(2S,3S)-3-methyl-2-{[(2R)-2-methylpyrrolidin-2-yl]formamido}-N-(pent-4-yn-1-yloxy)pentanamido]pentyl]-1,3-thiazol-4-yl}formamido)-5-(4-amino-3-fluorophenyl)-2,2-dimethylpentanoic Acid]",4.87 nM,

# Source: patent US20230069722A1, “TUBULYSINS AND PROTEIN-TUBULYSIN CONJUGATES” (priority 2020, published 2023)
